Assay results: ChEMBL document CHEMBL3817840, “Discovery of CNS Penetrant CXCR2 Antagonists for the Potential Treatment of CNS Demyelinating Disorders” (ACS Med Chem Lett, 2016)
The source made the active and inactive calls. The calls are words filed in the database; no cut-off is given here.

What was measured:
Brain [1] = test: AUC (0 to 4 hrs) in C57BL/6 mouse brain at 3.4 mg/kg, po by UPLC/MS/MS analysis; type: ADME, organism-based; parameters: dose 3.4 mg/kg, time < 4 hr, route oral; conditions: in vivo
[2] = Ratio of drug level in C57BL/6 mouse brain to blood at 3.4 mg/kg, po; type: ADME, organism-based
[3] = target: T1, C-X-C chemokine receptor type 2 (Homo sapiens, UniProt P25025); test: Antagonist activity at human recombinant Gal4-VP16 fused-CXCR2 assessed as inhibition of CXCL1-mediated lactamase reporter gene expression after overnight incubation
T1 sequence (P25025 whole entry): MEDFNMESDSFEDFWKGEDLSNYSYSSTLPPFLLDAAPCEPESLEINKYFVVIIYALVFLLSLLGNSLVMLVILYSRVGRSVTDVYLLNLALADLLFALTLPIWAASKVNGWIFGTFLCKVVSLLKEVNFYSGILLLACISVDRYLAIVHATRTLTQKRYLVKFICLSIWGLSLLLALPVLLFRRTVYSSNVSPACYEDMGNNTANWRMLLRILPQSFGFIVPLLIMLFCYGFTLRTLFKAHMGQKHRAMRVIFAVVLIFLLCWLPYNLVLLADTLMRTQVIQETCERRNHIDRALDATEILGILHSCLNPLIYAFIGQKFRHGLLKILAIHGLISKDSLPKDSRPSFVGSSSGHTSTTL

[4] = AUC (0 to 4 hrs) in C57BL/6 mouse blood at 3.4 mg/kg, po by UPLC/MS/MS analysis; type: ADME, organism-based; parameters: time < 4 hr, dose 3.4 mg/kg, route oral
[5] = (§1) AUC (0 to 4 hrs) in C57BL/6 mouse blood at 2 mg/kg, ip by UPLC/MS/MS analysis; type: ADME, organism-based; parameters: dose 2 mg/kg, time < 4 hr, route intraperitoneal; conditions: C57BL/6, mouse, blood
Brain [6] = test: AUC (0 to 4 hrs) in C57BL/6 mouse brain at 2 mg/kg, ip by UPLC/MS/MS analysis; type: ADME, organism-based; parameters: dose 2 mg/kg, time < 4 hr, route intraperitoneal; conditions: in vivo
[7] = Ratio of drug level in C57BL/6 mouse brain to blood at 2 mg/kg, ip; type: ADME, organism-based; conditions: for Kp: C57BL/6, mouse, brain/blood; for Ratio: mouse, brain, BLD = below limit of detection
Blood = test: as §1; type: ADME, organism-based; parameters: dose 2 mg/kg, time < 4 hr, route intraperitoneal; conditions: mouse, in vivo, 4 h, BLD = below limit of detection
Cytochrome P450 1A2 = target: T2, Cytochrome P450 1A2 (Homo sapiens, UniProt P05177); test: Inhibition of CYP1A2 (unknown origin); type: ADME
T2 sequence (P05177 whole entry): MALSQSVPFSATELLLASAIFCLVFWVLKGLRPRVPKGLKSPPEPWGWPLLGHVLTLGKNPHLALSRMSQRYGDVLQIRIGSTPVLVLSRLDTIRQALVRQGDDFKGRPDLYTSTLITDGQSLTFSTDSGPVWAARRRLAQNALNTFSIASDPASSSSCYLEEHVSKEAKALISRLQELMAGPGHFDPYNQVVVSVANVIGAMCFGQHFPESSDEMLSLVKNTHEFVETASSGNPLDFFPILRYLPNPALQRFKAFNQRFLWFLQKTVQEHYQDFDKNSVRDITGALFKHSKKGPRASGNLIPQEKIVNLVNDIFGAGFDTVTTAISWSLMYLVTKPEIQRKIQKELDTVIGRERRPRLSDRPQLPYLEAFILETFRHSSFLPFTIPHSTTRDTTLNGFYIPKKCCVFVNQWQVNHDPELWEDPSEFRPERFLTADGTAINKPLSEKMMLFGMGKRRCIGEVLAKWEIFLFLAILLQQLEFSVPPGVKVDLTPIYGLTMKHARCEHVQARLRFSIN

[8] = Stability of the compound assessed as GSH conjugate formation; type: physicochemical
[9] = Cmax in C57BL/6 mouse at 2 mg/kg, po; type: ADME, organism-based; parameters: dose 2 mg/kg, route oral; conditions: in vivo
Mus musculus [10] = test: Dose normalized AUC (0 to infinity) in C57BL/6 mouse at 2 mg/kg, po; type: ADME, organism-based; conditions: in vivo
[11] = target: Voltage-gated inwardly rectifying potassium channel KCNH2 (Homo sapiens, UniProt Q12809); test: Binding affinity to human ERG
Sequence of Voltage-gated inwardly rectifying potassium channel KCNH2 (Q12809 whole entry): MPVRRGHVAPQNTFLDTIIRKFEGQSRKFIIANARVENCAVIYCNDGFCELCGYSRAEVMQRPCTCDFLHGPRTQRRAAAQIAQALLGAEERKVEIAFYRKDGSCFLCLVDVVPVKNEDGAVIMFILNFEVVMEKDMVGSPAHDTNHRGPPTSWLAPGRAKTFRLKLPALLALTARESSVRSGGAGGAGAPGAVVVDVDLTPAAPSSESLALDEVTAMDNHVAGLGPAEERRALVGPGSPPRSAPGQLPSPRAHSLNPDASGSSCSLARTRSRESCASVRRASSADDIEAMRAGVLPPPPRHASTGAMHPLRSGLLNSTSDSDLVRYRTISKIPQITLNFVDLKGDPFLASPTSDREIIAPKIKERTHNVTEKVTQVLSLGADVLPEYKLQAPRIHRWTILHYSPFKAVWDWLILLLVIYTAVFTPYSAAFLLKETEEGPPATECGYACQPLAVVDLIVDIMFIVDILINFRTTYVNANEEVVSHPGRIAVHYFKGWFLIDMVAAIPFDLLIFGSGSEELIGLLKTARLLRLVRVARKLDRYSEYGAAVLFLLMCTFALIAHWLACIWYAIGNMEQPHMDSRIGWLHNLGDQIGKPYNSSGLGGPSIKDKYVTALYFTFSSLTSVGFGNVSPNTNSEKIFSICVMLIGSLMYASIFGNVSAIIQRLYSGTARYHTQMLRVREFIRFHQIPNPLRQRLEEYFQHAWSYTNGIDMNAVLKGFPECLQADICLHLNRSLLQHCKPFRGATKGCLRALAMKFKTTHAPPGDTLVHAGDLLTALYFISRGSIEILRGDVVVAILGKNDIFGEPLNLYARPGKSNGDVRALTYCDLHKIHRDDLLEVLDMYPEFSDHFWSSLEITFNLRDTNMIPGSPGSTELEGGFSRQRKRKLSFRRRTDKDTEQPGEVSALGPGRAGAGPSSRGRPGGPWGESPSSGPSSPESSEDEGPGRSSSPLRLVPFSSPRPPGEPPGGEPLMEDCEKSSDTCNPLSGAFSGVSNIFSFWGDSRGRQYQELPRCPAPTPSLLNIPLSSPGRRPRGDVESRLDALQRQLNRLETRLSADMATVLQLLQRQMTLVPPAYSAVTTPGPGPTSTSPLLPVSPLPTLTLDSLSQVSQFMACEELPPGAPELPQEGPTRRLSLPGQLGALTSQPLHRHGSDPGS

[12] = Half life in C57BL/6 mouse at 1 mg/kg, iv; type: ADME, organism-based; conditions: in vivo
Cytochrome P450 3A4 = Cytochrome P450 3A4 (Homo sapiens, UniProt P08684); test: Inhibition of CYP3A4 (unknown origin); type: ADME
Sequence of Cytochrome P450 3A4 (P08684 whole entry): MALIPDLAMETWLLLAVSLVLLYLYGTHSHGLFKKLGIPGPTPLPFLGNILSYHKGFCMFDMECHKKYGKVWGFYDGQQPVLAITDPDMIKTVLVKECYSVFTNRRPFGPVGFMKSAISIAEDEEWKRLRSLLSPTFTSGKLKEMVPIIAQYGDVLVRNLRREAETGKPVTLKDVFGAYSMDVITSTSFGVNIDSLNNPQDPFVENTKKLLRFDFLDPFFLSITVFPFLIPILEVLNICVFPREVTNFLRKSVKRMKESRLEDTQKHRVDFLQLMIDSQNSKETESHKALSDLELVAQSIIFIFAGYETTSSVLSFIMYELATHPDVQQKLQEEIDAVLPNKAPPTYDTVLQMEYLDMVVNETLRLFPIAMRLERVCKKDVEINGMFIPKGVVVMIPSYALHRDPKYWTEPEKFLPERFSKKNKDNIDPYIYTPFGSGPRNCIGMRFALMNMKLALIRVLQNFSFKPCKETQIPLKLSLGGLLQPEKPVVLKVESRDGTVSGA

[13] = Oral bioavailability in C57BL/6 mouse at 2 mg/kg; type: ADME, organism-based; conditions: in vivo
[14] = Volume of distribution at steady state in C57BL/6 mouse at 1 mg/kg, iv; type: ADME, organism-based; conditions: in vivo, read-out: Vdss
[15] = Fraction unbound in human plasma; type: ADME, cell-free
[16] = Clearance in C57BL/6 mouse blood at 1 mg/kg, iv; type: ADME, organism-based
Cytochrome P450 2C19 = Cytochrome P450 2C19 (Homo sapiens, UniProt P33261); test: Inhibition of CYP2C19 (unknown origin); type: ADME
Sequence of Cytochrome P450 2C19 (P33261 whole entry): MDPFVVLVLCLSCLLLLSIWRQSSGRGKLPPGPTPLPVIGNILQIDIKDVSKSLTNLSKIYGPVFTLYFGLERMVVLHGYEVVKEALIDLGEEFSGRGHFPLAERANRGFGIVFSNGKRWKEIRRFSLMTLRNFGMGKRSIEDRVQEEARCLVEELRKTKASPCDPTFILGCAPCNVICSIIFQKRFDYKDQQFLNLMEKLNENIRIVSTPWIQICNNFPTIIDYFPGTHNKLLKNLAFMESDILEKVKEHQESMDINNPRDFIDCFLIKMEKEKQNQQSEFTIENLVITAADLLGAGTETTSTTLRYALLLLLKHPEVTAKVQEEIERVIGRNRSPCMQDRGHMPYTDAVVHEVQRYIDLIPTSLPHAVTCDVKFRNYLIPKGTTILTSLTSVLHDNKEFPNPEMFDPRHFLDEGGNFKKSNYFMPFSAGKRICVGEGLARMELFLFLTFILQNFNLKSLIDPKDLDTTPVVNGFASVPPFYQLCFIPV

[17] = AUC (0 to 4 hrs) in C57BL/6 mouse blood at 1.9 mg/kg, po by UPLC/MS/MS analysis; type: ADME, organism-based; parameters: dose 1.9 mg/kg, time < 4 hr, route oral
[18] = Ratio of drug level in C57BL/6 mouse brain to blood at 1.9 mg/kg, po; type: ADME, organism-based
Brain [19] = test: AUC (0 to 4 hrs) in C57BL/6 mouse brain at 1.9 mg/kg, po by UPLC/MS/MS analysis; type: ADME, organism-based; parameters: dose 1.9 mg/kg, time < 4 hr, route oral; conditions: in vivo
Mus musculus [20] = test: Induction of remyelination in corpus callosum in cuprizone-induced C57BL/6 mouse demyelination model at 100 mg/kg, po bid for 9 consecutive days by black-gold myelin staining based microscopy; type: functional, organism-based
Cytochrome P450 2D6 = Cytochrome P450 2D6 (Homo sapiens, UniProt P10635); test: Inhibition of CYP2D6 (unknown origin); type: ADME
Sequence of Cytochrome P450 2D6 (P10635 whole entry): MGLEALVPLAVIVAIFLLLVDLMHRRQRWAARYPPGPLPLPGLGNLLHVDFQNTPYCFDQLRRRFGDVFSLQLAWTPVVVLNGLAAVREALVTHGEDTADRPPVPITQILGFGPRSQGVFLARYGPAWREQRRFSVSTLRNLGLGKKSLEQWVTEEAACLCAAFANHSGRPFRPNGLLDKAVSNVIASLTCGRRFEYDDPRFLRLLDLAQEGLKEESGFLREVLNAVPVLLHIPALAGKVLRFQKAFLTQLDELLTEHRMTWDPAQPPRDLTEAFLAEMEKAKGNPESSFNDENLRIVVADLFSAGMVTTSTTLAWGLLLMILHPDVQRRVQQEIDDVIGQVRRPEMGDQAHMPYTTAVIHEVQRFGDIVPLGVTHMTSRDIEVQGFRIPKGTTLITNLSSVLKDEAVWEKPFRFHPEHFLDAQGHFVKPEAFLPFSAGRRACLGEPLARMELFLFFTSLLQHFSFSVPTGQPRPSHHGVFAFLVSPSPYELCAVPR

Cytochrome P450 2C9 = Cytochrome P450 2C9 (Homo sapiens, UniProt P11712)
Sequence of Cytochrome P450 2C9 (P11712 whole entry): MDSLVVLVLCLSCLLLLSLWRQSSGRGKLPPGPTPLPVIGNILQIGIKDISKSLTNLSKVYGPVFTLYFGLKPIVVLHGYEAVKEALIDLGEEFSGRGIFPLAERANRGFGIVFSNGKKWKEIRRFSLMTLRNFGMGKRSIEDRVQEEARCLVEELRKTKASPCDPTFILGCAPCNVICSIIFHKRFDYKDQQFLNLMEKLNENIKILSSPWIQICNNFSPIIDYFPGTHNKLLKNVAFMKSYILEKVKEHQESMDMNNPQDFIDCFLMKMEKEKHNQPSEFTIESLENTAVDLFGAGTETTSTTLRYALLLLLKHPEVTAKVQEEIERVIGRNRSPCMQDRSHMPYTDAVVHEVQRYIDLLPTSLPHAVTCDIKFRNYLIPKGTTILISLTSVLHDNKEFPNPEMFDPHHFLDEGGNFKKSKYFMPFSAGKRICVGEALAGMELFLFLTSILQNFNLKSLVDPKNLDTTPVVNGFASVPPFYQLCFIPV
Description: Inhibition of CYP2C9 (unknown origin)

IC50 [3] [nM]	AUC(0-t) at 4 h [5] [ng·h/mL]	AUC (Brain [6]) [ng·h/g]	Kp [7]	SMILES	also measured
0.631				O=C(Nc1ccc(Cl)c(S(=O)(=O)N2CCNCC2)c1O)Nc1cccc(Cl)c1Cl	AUC (Brain [1]): 143 ng·h/g; Kp [2]: 0.17; AUC(0-t) at 4 h [4]: 855 ng·h/mL
0.501	256	73.9	0.29	CCS(=O)(=O)c1c(Cl)ccc(NC(=O)Nc2cccc(Cl)c2Cl)c1O	
1				O=C(Nc1ccc(Cl)c(C(=O)N2CCCC2)c1O)Nc1cccc(F)c1Cl	AUC (Blood): BLD; AUC (Brain [6]; BLD = below limit of detection): BLD; Ratio [7]: BLD
1.58	52.9	99	1.87	CC(C)N1CCN(S(=O)(=O)c2c(Cl)ccc(NC(=O)Nc3cccc(F)c3Cl)c2O)CC1	
1.58	600	358		CN1CCC(S(=O)(=O)c2c(Cl)ccc(NC(=O)Nc3cccc(Cl)c3Cl)c2O)CC1	IC50 (Cytochrome P450 1A2): > 10000 nM; Stability [8]: Stable; Cmax [9]: 132 ng/mL; AUC/dose (Mus musculus [10]): 299 ng·h/mL/mg/kg; IC50 [11]: > 79400 nM; half-life [12]: 2 h; IC50 (Cytochrome P450 3A4): > 10000 nM; bioavailability [13]: 30%; Vd [14]: 2.12 L/kg; Fu [15]: 0.1%; clearance [16]: 15.6 mL/min/kg; IC50 (Cytochrome P450 2C19): > 10000 nM
1	189	128	0.67	CCN1CCN(S(=O)(=O)c2c(Cl)ccc(NC(=O)Nc3cccc(F)c3Cl)c2O)CC1	
2				NS(=O)(=O)c1c(Cl)ccc(NC(=O)Nc2cccc(Cl)c2Cl)c1O	AUC(0-t) at 4 h [17]: 352 ng·h/mL; Kp [18]: 0.14; AUC (Brain [19]): 49 ng·h/g
0.501				O=C(Nc1ccc(Cl)c(C(=O)N2CCCCC2)c1O)Nc1cccc(F)c1Cl	AUC (Blood): BLD; AUC (Brain [6]; BLD = below limit of detection): BLD; Ratio [7]: BLD
10	519	73	0.14	C[C@@H]1CN(S(=O)(=O)c2c(Cl)ccc(NC(=O)Nc3cccc(Cl)c3Cl)c2O)C[C@H](C)O1	
0.501	735	335		CN1CCC(S(=O)(=O)c2c(Cl)ccc(NC(=O)Nc3cccc(F)c3Cl)c2O)CC1	Activity (Mus musculus [20]): Active; Stability [8]: Stable; Cmax [9]: 157 ng/mL; AUC/dose (Mus musculus [10]): 354 ng·h/mL/mg/kg; half-life [12]: 2.8 h; bioavailability [13]: 41%; Vd [14]: 3.17 L/kg; Fu [15]: 0.13%; clearance [16]: 16.9 mL/min/kg
0.398	1050	22.9	0.02	CN1CC2(CC(S(=O)(=O)c3c(Cl)ccc(NC(=O)Nc4cccc(F)c4Cl)c3O)C2)C1	
0.501	463	99.1	0.21	CN1CCC[C@H](S(=O)(=O)c2c(Cl)ccc(NC(=O)Nc3cccc(F)c3Cl)c2O)CC1	
2	1390	111	0.08	CN1CCC2(CC1)CC(S(=O)(=O)c1c(Cl)ccc(NC(=O)Nc3cccc(F)c3Cl)c1O)C2	
2	904	29.8	0.03	O=C(Nc1ccc(Cl)c(S(=O)(=O)C2CCNCC2)c1O)Nc1cccc(Cl)c1Cl	
0.501	355	369	1.04	CC(C)(C)S(=O)(=O)c1c(Cl)ccc(NC(=O)Nc2cccc(F)c2Cl)c1O	
0.501	432	136	0.32	CN1CC[C@H](S(=O)(=O)c2c(Cl)ccc(NC(=O)Nc3cccc(F)c3Cl)c2O)C1	
0.316	103	28.4	0.28	O=C(Nc1ccc(Cl)c(S(=O)(=O)C2CCC2)c1O)Nc1cccc(F)c1Cl	
0.501	284	59	0.21	O=C(Nc1ccc(Cl)c(S(=O)(=O)C2CCOC2)c1O)Nc1cccc(Cl)c1Cl (centres undefined)	
0.794	176	83	0.47	CN1CCN(S(=O)(=O)c2c(Cl)ccc(NC(=O)Nc3cccc(F)c3Cl)c2O)CC1	
0.794	290	37	0.13	O=C(Nc1ccc(Cl)c(S(=O)(=O)C2CCOCC2)c1O)Nc1cccc(Cl)c1Cl	
0.398	1480	69.3	0.05	CN1CCC2(CCC(S(=O)(=O)c3c(Cl)ccc(NC(=O)Nc4cccc(F)c4Cl)c3O)CC2)CC1	
1.26	684	244		CCN1CCC(S(=O)(=O)c2c(Cl)ccc(NC(=O)Nc3cccc(F)c3Cl)c2O)CC1	IC50 (Cytochrome P450 2D6): > 10000 nM; IC50 (Cytochrome P450 1A2): > 10000 nM; Cmax [9]: 125 ng/mL; AUC/dose (Mus musculus [10]): 212 ng·h/mL/mg/kg; IC50 (Cytochrome P450 2C9): > 10000 nM; half-life [12]: 2.3 h; IC50 (Cytochrome P450 3A4): > 10000 nM; bioavailability [13]: 41%; Vd [14]: 2.82 L/kg; Fu [15]: 0.036%; clearance [16]: 30.8 mL/min/kg; IC50 (Cytochrome P450 2C19): > 10000 nM
0.631	290	180	0.62	CC(C)S(=O)(=O)c1c(Cl)ccc(NC(=O)Nc2cccc(Cl)c2Cl)c1O	
0.501	198	95	0.48	CC(C)S(=O)(=O)c1c(Cl)ccc(NC(=O)Nc2cccc(F)c2Cl)c1O	
0.316				O=C(Nc1ccc(Cl)c(S(=O)(=O)C2CCCCC2)c1O)Nc1cccc(F)c1Cl	AUC (Blood): BLD; AUC (Brain [6]; BLD = below limit of detection): BLD; Ratio [7]: BLD
0.794	303	151	0.5	CN1CCN(S(=O)(=O)c2c(Cl)ccc(NC(=O)Nc3cccc(Cl)c3Cl)c2O)CC1	
3.98	279	96	0.35	C[C@@H]1CN(S(=O)(=O)c2c(Cl)ccc(NC(=O)Nc3cccc(F)c3Cl)c2O)C[C@H](C)O1	
1.26	577	164	0.28	CN1CC[C@H](S(=O)(=O)c2c(Cl)ccc(NC(=O)Nc3cccc(Cl)c3Cl)c2O)C1	IC50 (Cytochrome P450 2D6): > 10000 nM; IC50 (Cytochrome P450 1A2): > 10000 nM; Stability [8]: Stable; Cmax [9]: 216 ng/mL; AUC/dose (Mus musculus [10]): 271 ng·h/mL/mg/kg; IC50 (Cytochrome P450 2C9): > 10000 nM; half-life [12]: 1.9 h; IC50 (Cytochrome P450 3A4): > 10000 nM; bioavailability [13]: 26%; Vd [14]: 1.72 L/kg; Fu [15]: 0.021%; clearance [16]: 15.4 mL/min/kg; IC50 (Cytochrome P450 2C19): > 10000 nM
0.316	2.98	1.26	0.42	O=C(Nc1ccc(Cl)c(S(=O)(=O)C2CCCC2)c1O)Nc1cccc(F)c1Cl	
